Assay results published in patent publication US20060276407A1, “Methods of treating hepatitis C virus” (Schering Corporation, priority 2005, published 2006).
Several values for one entry are separate records, joined by “and”; a condition that tells them apart may be missing. Equal entries are not always repeated. Where two headings read alike, the source gives them in different places.

Legend:
[1] = system: bicistronic subgenomic replicon (genotype 1b); assay: Bicistronic subgenomic replicon suppression, 72 hour assay in HuH-7 cells; format: cell-based, HCV; conditions: Hepatitis C virus
Excerpt: NS3-mediated cleavage of the HCV polyprotein releases functional viral proteins essential for viral propagation. Therefore, blockage of NS3 protease activity by compound of Formula Ia is expected to inhibit viral replication in infected host cells.

[2] = Food-effect crossover bioavailability study, 600 mg fed vs fasted, healthy adult subjects (Example 2); format: in vivo, human; conditions: for Plasma concentration at 8 hours / Plasma concentration at 12 hours: individual subjects; for concentration at 8 hours / concentration at 12 hours / Vd/F / AUC / Cmax / half-life / Tmax: both sexes, human, plasma, po, 600 mg; for half-life: read-out: t½ (converted); for Tmax: median (range)
Experimental: This was a randomized, open-label, single-dose, two-treatment (fed or fasted), two-period, two-sequence crossover study of the effect of food on the bioavailability of compound of Formula Ia in 23 healthy adult male and female subjects. The primary pharmacokinetic parameters were AUC(l) and Cmax for compound of Formula Ia. The study included a 7-day wash-out period between treatment periods.
Subjects were confined at the study site at least 14 hours prior to each treatment (Day −1). On the morning of Day 1, following a 10-hour overnight fast, subjects were randomized to receive in a particular order Treatment A and Treatment B: • Treatment A: compound of Formula Ia 600 mg (6×100 mg capsules) PO following an overnight fast. • Treatment B: compound of Formula Ia 600 mg (6×100 mg capsules) PO within 20 minutes following the completion of a standard high-fat breakfast. There was a 7-day wash-out period between receiving treatments.
Subjects receiving Treatment A received a formulation of compound of Formula Ia comprised of compound of Formula Ia and a pharmaceutically acceptable carrier, such as microcrystalline cellulose, while continuing to fast, while subjects randomized to Treatment B consumed a standardized high-fat meal prior to compound administration (within 20 minutes prior to the compound administration). The capsules along with approximately 240 mL of water were swallowed whole, not chewed or crushed. […] Water was permitted as desired except for 1 hour before and after compound administration. A washout period of at least 7 days separated the two treatment periods. Upon return to the clinic, subjects underwent the same procedures as the first period and continued the randomization sequence (subjects who received compound of Formula Ia fasted in Period 1 and then received compound of Formula Ia under fed conditions in Period 2, and vice versa).
Blood samples (7 mL each) for the determination of compound of Formula Ia levels were drawn immediately prior to dosing (0 hour), and at 0.5, 1, 1.5, 2, 2.5, 3, 4, 5, 6, 8, 12, 24, 36, and 48 hours after dosing. The blood samples were collected into tubes containing EDTA. The samples were centrifuged at 1500 g for 10 minutes to obtain plasma and the plasma samples were frozen at −20° C. and maintained in the frozen state until assayed.
Plasma concentrations of compound of Formula Ia were determined using a validated liquid chromatography tandem mass spectrometry (LC-MS/MS) method. The assay lower limit of quantitation (LLOQ) was 0.50 ng/mL and the method was validated over the concentration range of 0.50 to 1000 ng/mL.
The mean and percent coefficient of variation (% CV) were calculated for plasma concentrations of compound of Formula Ia at each time point. Concentration values less than the assay LLOQ were reported as, and set to zero in the tables and calculations. The plasma concentration-time data for compound of Formula Ia were subjected to pharmacokinetic analysis by noncompartmental methods using WinNonlin software. Nominal sampling times were used for pharmacokinetic analysis, since none of the pharmacokinetic sampling time deviations were >10% of the nominal times. For each subject, the following pharmacokinetic parameters were determined for compound of Formula Ia: maximum plasma concentration (Cmax), time of maximum observed plasma concentration (Tmax), the final quantifiable sampling time (tf), area under the plasma concentration-time curve from time 0 to tf (AUC[tf]), AUC(l) (AUC[tf]+ C[tf]estimated/K) and Vd/F. The K and C(tf)estimated are defined as terminal elimination rate constant and estimated concentration at final quantifiable sample, respectively. Terminal phase half-life (t½=ln 2/K) and apparent clearance (CLUF=Dose/AUC[l]) were also determined. Cmax, Tmax and tf were the observed values. […]

[3] = 600 mg PO, fasted, mean, balanced data
[4] = 600 mg PO, fed (high-fat breakfast), mean, balanced data
[5] = 600 mg PO, standardized high-fat meal

CC(C)(C)NC(=O)N[C@H](C(=O)N1C[C@H]2[C@@H]([C@H]1C(=O)NC(CC1CCC1)C(=O)C(N)=O)C2(C)C)C(C)(C)C (mixture of isomers) [Formula Ia, (1 R, 5S)-N-[3-Amino-1-(Cyclobutylmethyl)-2,3-Dioxopropyl]-3-[2(S)-[[[(1,1-Dimethylethyl)Amino]Carbonyl]Amino]-3,3-Dimethyl-1-Oxobutyl]-6,6-Dimethyl-3-Azabicyclo[3.1.0]Hexan-2(S)-Carboxamide]
IC50 ([1]; n=25, read-out: IC50 for suppression (4-log reduction) of the replicon (converted)): ~200 nM | IC90 ([1]; n=25, read-out: IC90 for suppression (4-log reduction) of the replicon (converted)): ~400 nM | Apparent mean Vd/F, fed versus fasted states ([2]; 600 mg PO): about five | Median concentration at the 8-hour time point, fed state relative to fasted state ([2]; 600 mg PO): more than 4 fold | Median concentration at the 12-hour time point, increase in fed state relative to fasted state ([2]; 600 mg PO): 2 fold | AUC(l) Ratio Estimate (fed to fasted) ([2]; 600 mg PO, Female (n = 10)): 225% | AUC(tf) Ratio Estimate (fed to fasted) ([2]; 600 mg PO, Female (n = 10)): 229% | Cmax Ratio Estimate (fed to fasted) ([2]; 600 mg PO, Female (n = 10)): 170% | AUC(l) Ratio Estimate (fed to fasted) ([2]; 600 mg PO, Male (n = 10)): 202% | AUC(tf) Ratio Estimate (fed to fasted) ([2]; 600 mg PO, Male (n = 10)): 205% | Cmax Ratio Estimate (fed to fasted) ([2]; 600 mg PO, Male (n = 10)): 155% | Plasma concentration at 8 hours ([2]; 600 mg PO, fasted): 37.5 ng/mL and 18.7 ng/mL and 37.4 ng/mL and 13.4 ng/mL and 77.9 ng/mL and 39.0 ng/mL and 46.6 ng/mL and 50.0 ng/mL and 66.8 ng/mL and 19.3 ng/mL and 8.50 ng/mL and 27.3 ng/mL and 24.8 ng/mL and 24.1 ng/mL and 81.3 ng/mL and 58.0 ng/mL and 33.5 ng/mL and 28.7 ng/mL and 27.8 ng/mL | Plasma concentration at 12 hours ([2]; 600 mg PO, fasted): 20.9 ng/mL and 8.12 ng/mL and 27.0 ng/mL and 4.90 ng/mL and 21.3 ng/mL and 16.3 ng/mL and 18.3 ng/mL and 20.6 ng/mL and 11.4 ng/mL and 4.46 ng/mL and 3.11 ng/mL and 13.2 ng/mL and 9.56 ng/mL and 19.6 ng/mL and 26.6 ng/mL and 14.3 ng/mL and 9.33 ng/mL and 9.50 ng/mL and 10.7 ng/mL | CL/F [2, 3]: 393 L/h | CL/F [2, 4]: 179 L/h | Plasma concentration at 8 hours ([2]; 600 mg PO, fed): 33.8 ng/mL and 62.2 ng/mL and 190 ng/mL and 92.4 ng/mL and 442 ng/mL and 81.4 ng/mL and 54.3 ng/mL and 675 ng/mL and 392 ng/mL and 949 ng/mL and 46.1 ng/mL and 426 ng/mL and 283 ng/mL and 55.6 ng/mL and 164 ng/mL and 612 ng/mL and 54.8 ng/mL and 447 ng/mL and 33.6 ng/mL | Plasma concentration at 12 hours ([2]; 600 mg PO, fed): 7.34 ng/mL and 11.2 ng/mL and 27.8 ng/mL and 13.6 ng/mL and 37.2 ng/mL and 13.9 ng/mL and 33.5 ng/mL and 384 ng/mL and 184 ng/mL and 54.2 ng/mL and 6.70 ng/mL and 22.2 ng/mL and 140 ng/mL and 10.4 ng/mL and 87.3 ng/mL and 109 ng/mL and 9.17 ng/mL and 48.8 ng/mL and 7.09 ng/mL | AUC(l) Ratio Estimate (fed to fasted) ([2]; 600 mg PO, n = 20): 214% | AUC(tf) Ratio Estimate (fed to fasted) ([2]; 600 mg PO, n = 20): 217% | Cmax Ratio Estimate (fed to fasted) ([2]; 600 mg PO, n = 20): 162% | Increase of Cmax in the fed state [2, 5]: 62% | Increase of mean relative bioavailability (AUC) in the fed state relative to fasted [2, 5]: over 100% | Safety profile (treatment emergent and treatment related AEs) ([2]; 600 mg oral dose, both fed and fasted states): low frequency of treatment emergent and treatment related AEs | concentration at 8 hours ([2]; 600 mg PO, fasted, Max): 81.3 ng/mL | concentration at 12 hours ([2]; 600 mg PO, fasted, Max): 27 ng/mL | concentration at 8 hours ([2]; 600 mg PO, fasted, Min): 8.5 ng/mL | concentration at 12 hours ([2]; 600 mg PO, fasted, Min): 3.11 ng/mL | concentration at 8 hours ([2]; 600 mg PO, fasted, mean): 37.9 ng/mL | concentration at 12 hours ([2]; 600 mg PO, fasted, mean): 14.2 ng/mL | Vd/F [2, 3]: 6730 L | AUC ([2]; 600 mg PO, fasted, mean, balanced data, read-out: AUC(l)): 1750 ng·h/mL | AUC ([2]; 600 mg PO, fasted, mean, balanced data, read-out: AUC(tf)): 1720 ng·h/mL | Cmax ([2]; 600 mg PO, fasted, mean, balanced data, read-out: Cmax): 448 ng/mL | half-life [2, 3]: 12 h | concentration at 8 hours ([2]; 600 mg PO, fasted, median): 33.5 ng/mL | concentration at 12 hours ([2]; 600 mg PO, fasted, median): 13.2 ng/mL | Tmax ([2]; 600 mg PO, fasted, balanced data): 2 h | AUC ([2]; 600 mg PO, fasted, n = 20, read-out: AUC(l), model-based (least square) mean): 1650 ng·h/mL | AUC ([2]; 600 mg PO, fasted, n = 20, read-out: AUC(tf), model-based (least square) mean): 1620 ng·h/mL | Cmax ([2]; 600 mg PO, fasted, n = 20, read-out: Cmax, model-based (least square) mean): 418 ng/mL | Vd/F [2, 4]: 1150 L | AUC ([2]; 600 mg PO, fed (high-fat breakfast), mean, balanced data, read-out: AUC(l)): 3700 ng·h/mL | AUC ([2]; 600 mg PO, fed (high-fat breakfast), mean, balanced data, read-out: AUC(tf)): 3660 ng·h/mL | Cmax ([2]; 600 mg PO, fed (high-fat breakfast), mean, balanced data, read-out: Cmax): 790 ng/mL | half-life [2, 4]: 4.72 h | Tmax ([2]; 600 mg PO, fed (high-fat breakfast), balanced data): 5 h | concentration at 8 hours ([2]; 600 mg PO, fed, Max): 949 ng/mL | concentration at 12 hours ([2]; 600 mg PO, fed, Max): 384 ng/mL | concentration at 8 hours ([2]; 600 mg PO, fed, Min): 33.6 ng/mL | concentration at 12 hours ([2]; 600 mg PO, fed, Min): 6.7 ng/mL | concentration at 8 hours ([2]; 600 mg PO, fed, mean): 268 ng/mL | concentration at 12 hours ([2]; 600 mg PO, fed, mean): 63.5 ng/mL | concentration at 8 hours ([2]; 600 mg PO, fed, median): 164 ng/mL | concentration at 12 hours ([2]; 600 mg PO, fed, median): 27.8 ng/mL | AUC ([2]; 600 mg PO, fed, n = 20, read-out: AUC(l), model-based (least square) mean): 3530 ng·h/mL | AUC ([2]; 600 mg PO, fed, n = 20, read-out: AUC(tf), model-based (least square) mean): 3500 ng·h/mL | Cmax ([2]; 600 mg PO, fed, n = 20, read-out: Cmax, model-based (least square) mean): 678 ng/mL
